# Paper PMC10805714, “Functionally-selective inhibition of threshold sodium currents and excitability in dorsal root ganglion neurons by cannabinol” (Communications Biology, 2024)
# Assays:
# [1] = target: T1, Nav1.7-P610T (Homo sapiens, UniProt Q15858, P610T); test: automated patch-clamp, steady-state inactivation shift with […] s pre-pulse; type: cell-based
# T1 construct: gene SCN9A; P610T plasmid transfected in HEK293 cells
# [2] = target: T2, Nav1.7 (Homo sapiens, UniProt Q15858); test: automated whole-cell patch-clamp (Qube-384), IC50 at -90 mV holding-potential; type: cell-based
# T2 construct: gene SCN9A; human Nav1.7 stably expressed in HEK293 cells; with SCN1B (human, co-transfected)
# T2 sequence (Q15858 whole entry): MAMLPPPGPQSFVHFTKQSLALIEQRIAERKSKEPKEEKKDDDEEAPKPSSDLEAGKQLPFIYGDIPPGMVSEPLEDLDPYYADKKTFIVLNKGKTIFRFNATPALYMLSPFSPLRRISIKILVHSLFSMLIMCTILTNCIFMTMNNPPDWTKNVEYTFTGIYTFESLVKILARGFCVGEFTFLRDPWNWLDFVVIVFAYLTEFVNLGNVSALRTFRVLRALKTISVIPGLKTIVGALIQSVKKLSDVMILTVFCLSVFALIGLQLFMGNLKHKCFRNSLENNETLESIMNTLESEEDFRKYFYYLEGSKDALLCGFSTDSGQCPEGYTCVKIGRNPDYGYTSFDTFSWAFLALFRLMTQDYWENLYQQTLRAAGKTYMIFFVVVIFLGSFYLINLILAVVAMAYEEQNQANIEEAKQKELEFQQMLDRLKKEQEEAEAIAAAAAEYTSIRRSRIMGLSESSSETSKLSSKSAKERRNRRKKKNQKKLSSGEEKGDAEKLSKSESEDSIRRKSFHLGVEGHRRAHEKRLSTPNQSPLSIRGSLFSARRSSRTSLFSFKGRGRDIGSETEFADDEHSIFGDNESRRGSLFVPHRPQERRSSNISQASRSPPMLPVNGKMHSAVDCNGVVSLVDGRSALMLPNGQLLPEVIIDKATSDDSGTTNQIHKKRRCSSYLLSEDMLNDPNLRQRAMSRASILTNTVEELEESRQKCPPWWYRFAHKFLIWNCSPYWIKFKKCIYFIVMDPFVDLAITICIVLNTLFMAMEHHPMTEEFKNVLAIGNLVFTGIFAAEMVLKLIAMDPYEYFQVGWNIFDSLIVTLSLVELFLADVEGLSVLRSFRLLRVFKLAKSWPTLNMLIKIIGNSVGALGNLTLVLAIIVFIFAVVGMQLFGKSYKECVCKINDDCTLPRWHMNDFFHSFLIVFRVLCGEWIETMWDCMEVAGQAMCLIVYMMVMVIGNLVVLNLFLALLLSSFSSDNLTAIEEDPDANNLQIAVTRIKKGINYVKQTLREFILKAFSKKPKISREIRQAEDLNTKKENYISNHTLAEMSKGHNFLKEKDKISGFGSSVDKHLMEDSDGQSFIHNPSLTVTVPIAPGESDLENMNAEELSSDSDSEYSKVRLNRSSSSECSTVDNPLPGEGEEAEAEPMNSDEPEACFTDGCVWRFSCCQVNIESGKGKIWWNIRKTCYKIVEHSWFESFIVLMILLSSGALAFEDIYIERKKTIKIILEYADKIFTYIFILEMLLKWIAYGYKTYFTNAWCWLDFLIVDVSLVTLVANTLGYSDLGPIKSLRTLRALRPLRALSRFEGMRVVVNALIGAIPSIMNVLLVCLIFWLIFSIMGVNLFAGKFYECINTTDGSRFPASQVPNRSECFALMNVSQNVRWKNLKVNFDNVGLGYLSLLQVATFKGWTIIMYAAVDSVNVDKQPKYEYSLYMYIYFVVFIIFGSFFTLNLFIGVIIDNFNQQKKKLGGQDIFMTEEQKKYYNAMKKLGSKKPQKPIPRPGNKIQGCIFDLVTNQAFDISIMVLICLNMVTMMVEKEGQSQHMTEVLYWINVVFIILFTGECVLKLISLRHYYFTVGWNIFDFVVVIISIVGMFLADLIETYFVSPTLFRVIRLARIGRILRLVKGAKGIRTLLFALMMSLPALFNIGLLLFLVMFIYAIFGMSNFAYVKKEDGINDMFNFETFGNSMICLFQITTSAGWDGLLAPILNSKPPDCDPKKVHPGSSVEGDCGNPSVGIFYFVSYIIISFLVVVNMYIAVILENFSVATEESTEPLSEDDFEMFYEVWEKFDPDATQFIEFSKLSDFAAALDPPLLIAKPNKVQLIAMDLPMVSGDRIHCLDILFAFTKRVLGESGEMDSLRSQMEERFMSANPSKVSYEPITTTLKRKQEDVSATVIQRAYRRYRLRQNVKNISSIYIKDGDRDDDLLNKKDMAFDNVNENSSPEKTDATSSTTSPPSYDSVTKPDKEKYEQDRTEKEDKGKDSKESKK
# T2 sequence (Q07699 19-218 partner): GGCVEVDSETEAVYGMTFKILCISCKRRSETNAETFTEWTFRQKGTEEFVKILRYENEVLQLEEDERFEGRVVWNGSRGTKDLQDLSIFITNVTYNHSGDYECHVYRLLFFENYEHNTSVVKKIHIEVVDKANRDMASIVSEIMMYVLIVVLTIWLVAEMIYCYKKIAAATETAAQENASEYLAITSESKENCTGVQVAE
# T1 sequence (Q15858 whole entry P610T): as the sequence (Q15858 whole entry) above, with P610T counted along it
structure (smiles),measurement,setting,value
"CCCCCc1cc(O)c2c(c1)OC(C)(C)c1ccc(C)cc1-2 [CBN, Cannabinol]","automated patch-clamp, steady-state inactivation shift with 5 s pre-pulse",[1],CBN hyperpolarized the SSI curves in both WT and P610T (Fig. S1)
same,IC50,[2],10.7 µM
